According to the kinase profiling compilation of Christmann-Franck et al. (2016):

How the values were obtained:
Test in all cases: radiometric filter-binding kinase assay
[1] = tested on: AKT1 (human), P31749 [S473D]
PRKCA (human) = PRKCA (human) (UniProt P17252)
AURKA (human) = AURKA (human) (UniProt O14965)
[2] = tested on: RPS6KB1 (human), P23443 [T412E]
SYK (human) = SYK (human) (UniProt P43405)
FLT1 (human) = FLT1 (human) (UniProt P17948)
MAPK10 (human) = MAPK10 (human) (UniProt P53779)
EPHB1 (human) = EPHB1 (human) (UniProt P54762)
EPHB1 (human), sequence (P54762 whole entry, looked up): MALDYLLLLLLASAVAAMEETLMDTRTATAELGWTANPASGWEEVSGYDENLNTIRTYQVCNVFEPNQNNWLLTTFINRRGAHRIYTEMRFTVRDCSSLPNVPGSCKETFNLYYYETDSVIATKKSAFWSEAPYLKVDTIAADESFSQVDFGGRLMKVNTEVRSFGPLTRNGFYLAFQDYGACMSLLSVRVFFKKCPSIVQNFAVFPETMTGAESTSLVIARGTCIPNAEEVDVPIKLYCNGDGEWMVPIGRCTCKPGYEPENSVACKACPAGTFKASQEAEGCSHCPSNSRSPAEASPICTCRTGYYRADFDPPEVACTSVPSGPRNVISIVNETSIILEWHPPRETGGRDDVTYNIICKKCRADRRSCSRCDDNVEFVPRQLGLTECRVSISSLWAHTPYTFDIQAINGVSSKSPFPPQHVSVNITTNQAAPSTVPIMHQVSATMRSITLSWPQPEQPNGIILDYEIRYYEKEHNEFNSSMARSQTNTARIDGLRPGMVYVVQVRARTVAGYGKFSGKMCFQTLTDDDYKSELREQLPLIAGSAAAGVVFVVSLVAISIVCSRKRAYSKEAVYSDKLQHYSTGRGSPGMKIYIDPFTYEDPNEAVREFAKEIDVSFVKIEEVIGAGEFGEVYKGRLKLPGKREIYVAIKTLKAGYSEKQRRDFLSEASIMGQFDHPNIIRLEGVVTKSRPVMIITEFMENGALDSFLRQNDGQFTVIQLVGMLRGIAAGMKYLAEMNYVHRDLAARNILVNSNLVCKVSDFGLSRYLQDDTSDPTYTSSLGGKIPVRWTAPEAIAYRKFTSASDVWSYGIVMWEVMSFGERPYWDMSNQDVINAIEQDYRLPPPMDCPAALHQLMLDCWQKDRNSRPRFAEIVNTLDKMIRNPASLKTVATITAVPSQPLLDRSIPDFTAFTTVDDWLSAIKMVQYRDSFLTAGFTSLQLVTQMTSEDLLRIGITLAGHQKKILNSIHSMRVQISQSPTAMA

YES1 (human) = YES1 (human) (UniProt P07947)
MARK3 (human) = MARK3 (human) (UniProt P27448)
MAPK8 (human) = MAPK8 (human) (UniProt P45983)
HIPK1 (human) = HIPK1 (human) (UniProt Q86Z02)
DYRK3 (human) = DYRK3 (human) (UniProt O43781)
EPHB4 (human) = EPHB4 (human) (UniProt P54760)
BRSK1 (human) = BRSK1 (human) (UniProt Q8TDC3)
DYRK2 (human) = DYRK2 (human) (UniProt Q92630)
DYRK2 (human), sequence (Q92630 whole entry, looked up): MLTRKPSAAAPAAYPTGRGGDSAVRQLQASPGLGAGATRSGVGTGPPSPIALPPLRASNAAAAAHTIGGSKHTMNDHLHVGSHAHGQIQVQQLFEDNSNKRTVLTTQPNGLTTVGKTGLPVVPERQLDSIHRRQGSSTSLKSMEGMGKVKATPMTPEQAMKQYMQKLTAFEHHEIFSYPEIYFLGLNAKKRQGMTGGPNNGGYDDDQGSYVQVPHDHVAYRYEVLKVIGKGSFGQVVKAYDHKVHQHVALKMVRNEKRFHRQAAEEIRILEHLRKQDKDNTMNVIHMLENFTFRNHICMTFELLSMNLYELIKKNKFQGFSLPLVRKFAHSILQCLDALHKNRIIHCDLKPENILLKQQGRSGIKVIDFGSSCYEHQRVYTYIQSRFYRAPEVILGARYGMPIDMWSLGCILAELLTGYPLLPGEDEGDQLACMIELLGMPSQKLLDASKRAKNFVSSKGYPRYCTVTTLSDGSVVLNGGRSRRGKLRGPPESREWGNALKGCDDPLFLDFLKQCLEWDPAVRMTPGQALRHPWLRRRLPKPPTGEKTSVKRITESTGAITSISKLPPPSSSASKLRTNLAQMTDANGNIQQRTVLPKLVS

MAPK11 (human) = MAPK11 (human) (UniProt Q15759)
MAPK11 (human), sequence (Q15759 whole entry, looked up): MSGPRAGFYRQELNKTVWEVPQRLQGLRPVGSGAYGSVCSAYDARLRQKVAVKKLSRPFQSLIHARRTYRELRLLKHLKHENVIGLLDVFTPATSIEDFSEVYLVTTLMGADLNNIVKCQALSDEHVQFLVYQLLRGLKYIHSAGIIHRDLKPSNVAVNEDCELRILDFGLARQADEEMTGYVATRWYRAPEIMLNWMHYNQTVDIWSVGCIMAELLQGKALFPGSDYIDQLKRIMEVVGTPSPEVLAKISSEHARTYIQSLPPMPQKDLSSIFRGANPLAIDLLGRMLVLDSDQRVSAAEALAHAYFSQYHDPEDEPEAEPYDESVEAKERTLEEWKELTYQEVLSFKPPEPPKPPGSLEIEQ

JAK2 JH1 JH2 (human) = JAK2 JH1 JH2 (human) (UniProt O60674)
STK3 (human) = STK3 (human) (UniProt Q13188)
MAPKAPK5 (human) = MAPKAPK5 (human) (UniProt Q8IW41)
MAPKAPK5 (human), sequence (Q8IW41 whole entry, looked up): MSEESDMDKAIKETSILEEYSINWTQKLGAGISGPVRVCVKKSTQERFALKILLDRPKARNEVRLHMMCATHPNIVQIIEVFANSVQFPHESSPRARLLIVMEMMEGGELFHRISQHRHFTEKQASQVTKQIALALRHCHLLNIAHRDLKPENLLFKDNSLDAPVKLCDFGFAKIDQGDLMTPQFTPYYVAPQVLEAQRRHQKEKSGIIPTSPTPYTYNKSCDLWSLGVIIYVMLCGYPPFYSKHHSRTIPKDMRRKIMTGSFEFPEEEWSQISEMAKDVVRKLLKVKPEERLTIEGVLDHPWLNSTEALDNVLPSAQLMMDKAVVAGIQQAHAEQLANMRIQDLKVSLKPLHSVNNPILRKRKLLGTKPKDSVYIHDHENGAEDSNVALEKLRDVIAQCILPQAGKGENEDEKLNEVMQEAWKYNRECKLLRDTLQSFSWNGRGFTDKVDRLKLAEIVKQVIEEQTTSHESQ

MAP3K11 (human) = MAP3K11 (human) (UniProt Q16584)
MAP3K11 (human), sequence (Q16584 whole entry, looked up): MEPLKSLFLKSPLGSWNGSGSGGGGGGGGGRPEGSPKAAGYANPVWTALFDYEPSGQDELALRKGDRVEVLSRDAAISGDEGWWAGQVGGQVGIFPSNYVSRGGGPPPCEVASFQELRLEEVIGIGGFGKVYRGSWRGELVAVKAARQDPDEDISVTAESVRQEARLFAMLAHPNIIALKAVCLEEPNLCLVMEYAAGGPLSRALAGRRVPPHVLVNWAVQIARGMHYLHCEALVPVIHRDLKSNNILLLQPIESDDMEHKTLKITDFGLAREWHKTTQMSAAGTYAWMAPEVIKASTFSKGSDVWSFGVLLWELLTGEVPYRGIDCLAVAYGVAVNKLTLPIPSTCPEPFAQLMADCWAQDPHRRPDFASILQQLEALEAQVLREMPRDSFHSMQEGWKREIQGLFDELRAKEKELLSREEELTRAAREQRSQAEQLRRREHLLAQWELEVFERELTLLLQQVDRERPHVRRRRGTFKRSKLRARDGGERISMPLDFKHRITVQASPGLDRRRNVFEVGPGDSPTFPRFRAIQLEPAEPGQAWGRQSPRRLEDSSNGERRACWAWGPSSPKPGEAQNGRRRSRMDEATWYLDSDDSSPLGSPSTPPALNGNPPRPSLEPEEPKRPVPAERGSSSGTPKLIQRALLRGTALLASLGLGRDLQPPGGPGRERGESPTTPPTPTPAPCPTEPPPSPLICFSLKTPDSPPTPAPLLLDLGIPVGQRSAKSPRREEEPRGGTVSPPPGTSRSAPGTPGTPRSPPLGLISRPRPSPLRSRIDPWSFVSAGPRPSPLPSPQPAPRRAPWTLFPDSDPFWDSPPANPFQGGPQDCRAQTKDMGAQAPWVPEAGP

MAP3K1 (human) = MAP3K1 (human) (UniProt Q13233); settings: compound 0.01 µM
CaMK1 (human) = CaMK1 (human) (UniProt Q14012)
CaMK1 (human), sequence (Q14012 whole entry, looked up): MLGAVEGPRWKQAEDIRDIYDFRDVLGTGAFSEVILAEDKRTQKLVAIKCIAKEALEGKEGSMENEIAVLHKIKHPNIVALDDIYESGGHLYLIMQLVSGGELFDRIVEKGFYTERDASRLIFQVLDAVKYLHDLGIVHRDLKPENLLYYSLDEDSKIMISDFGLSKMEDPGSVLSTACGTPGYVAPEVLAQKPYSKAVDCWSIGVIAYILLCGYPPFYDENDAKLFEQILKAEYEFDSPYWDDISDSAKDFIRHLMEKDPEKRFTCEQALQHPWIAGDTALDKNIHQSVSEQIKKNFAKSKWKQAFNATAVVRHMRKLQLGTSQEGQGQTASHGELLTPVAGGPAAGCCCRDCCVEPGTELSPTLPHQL

GCK (human) = GCK (human) (UniProt Q12851)
MAP2K1 (human) = MAP2K1 (human) (UniProt Q02750)
TAOK1 (human) = TAOK1 (human) (UniProt Q7L7X3)
TBK1 (human) = TBK1 (human) (UniProt Q9UHD2)
INSR (human) = INSR (human) (UniProt P06213)
PIM1 (human) = PIM1 (human) (UniProt P11309)
PIM1 (human), sequence (P11309 whole entry, looked up): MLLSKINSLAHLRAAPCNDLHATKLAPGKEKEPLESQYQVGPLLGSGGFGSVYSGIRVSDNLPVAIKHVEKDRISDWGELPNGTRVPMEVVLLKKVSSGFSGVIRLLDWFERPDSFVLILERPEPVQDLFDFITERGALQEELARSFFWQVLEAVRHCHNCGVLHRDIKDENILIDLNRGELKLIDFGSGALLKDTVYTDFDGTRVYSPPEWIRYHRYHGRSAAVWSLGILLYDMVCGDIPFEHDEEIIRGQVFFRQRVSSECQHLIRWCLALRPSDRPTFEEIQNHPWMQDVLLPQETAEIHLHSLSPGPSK

EPHB2 (human) = EPHB2 (human) (UniProt P29323)
BTK (human) = BTK (human) (UniProt Q06187)
BTK (human), sequence (Q06187 whole entry, looked up): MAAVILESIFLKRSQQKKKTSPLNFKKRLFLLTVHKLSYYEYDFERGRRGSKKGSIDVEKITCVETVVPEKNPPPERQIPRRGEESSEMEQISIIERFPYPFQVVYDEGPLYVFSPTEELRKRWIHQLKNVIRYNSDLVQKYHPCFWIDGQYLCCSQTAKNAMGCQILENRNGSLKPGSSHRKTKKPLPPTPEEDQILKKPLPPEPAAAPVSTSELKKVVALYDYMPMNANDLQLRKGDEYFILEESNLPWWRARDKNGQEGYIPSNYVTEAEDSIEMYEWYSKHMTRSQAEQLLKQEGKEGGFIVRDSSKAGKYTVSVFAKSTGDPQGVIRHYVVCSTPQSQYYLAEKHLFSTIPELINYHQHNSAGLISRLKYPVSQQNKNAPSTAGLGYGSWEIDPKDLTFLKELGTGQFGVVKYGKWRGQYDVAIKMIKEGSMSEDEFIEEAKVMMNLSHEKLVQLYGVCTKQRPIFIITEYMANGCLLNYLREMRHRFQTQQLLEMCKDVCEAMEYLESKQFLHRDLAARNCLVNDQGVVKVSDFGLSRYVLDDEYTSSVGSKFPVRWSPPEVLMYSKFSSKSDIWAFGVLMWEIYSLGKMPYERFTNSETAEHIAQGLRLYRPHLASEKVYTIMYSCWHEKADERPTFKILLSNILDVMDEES

BRSK2 (human) = BRSK2 (human) (UniProt Q8IWQ3)
MAPK9 (human) = MAPK9 (human) (UniProt P45984)
MAP3K5 (human) = MAP3K5 (human) (UniProt Q99683)
EPHA2 (human) = EPHA2 (human) (UniProt P29317)

AURKA (human), sequence (O14965 whole entry, looked up): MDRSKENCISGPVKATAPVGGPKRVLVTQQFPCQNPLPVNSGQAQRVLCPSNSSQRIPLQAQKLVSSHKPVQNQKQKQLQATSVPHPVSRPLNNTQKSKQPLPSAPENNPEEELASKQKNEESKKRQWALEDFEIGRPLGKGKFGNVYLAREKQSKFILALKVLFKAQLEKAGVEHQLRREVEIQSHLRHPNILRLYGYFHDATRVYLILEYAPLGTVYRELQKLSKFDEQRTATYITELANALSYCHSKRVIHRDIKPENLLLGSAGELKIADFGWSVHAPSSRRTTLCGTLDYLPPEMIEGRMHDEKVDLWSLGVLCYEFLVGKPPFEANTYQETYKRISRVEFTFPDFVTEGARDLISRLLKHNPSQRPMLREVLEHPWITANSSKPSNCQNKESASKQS

## COc1ccc(N(C(=O)Nc2c(C)cccc2C)c2cc(Nc3ccc(N4CCN(C)CC4)cc3)ncn2)c(OC)c1
[1]; compound 0.01 µM
  residual activity: 98%
[1]; compound 0.1 µM
  residual activity: 92%
[1]; compound 1.0 µM
  residual activity: 91%
PRKCA (human); compound 0.01 µM
  residual activity: 102%
PRKCA (human); compound 0.1 µM
  residual activity: 102%
PRKCA (human); compound 1.0 µM
  residual activity: 104%
AURKA (human); compound 0.01 µM
  residual activity: 98%
AURKA (human); compound 0.1 µM
  residual activity: 91%
AURKA (human); compound 1.0 µM
  residual activity: 70%
[2]; compound 0.01 µM
  residual activity: 88%
[2]; compound 0.1 µM
  residual activity: 99%
[2]; compound 1.0 µM
  residual activity: 93%
SYK (human); compound 0.01 µM
  residual activity: 112%
SYK (human); compound 0.1 µM
  residual activity: 104%
SYK (human); compound 1.0 µM
  residual activity: 100%
FLT1 (human); compound 0.01 µM
  residual activity: 95%
FLT1 (human); compound 0.1 µM
  residual activity: 64%
FLT1 (human); compound 1.0 µM
  residual activity: 15%
MAPK10 (human); compound 0.01 µM
  residual activity: 93%
MAPK10 (human); compound 0.1 µM
  residual activity: 77%
MAPK10 (human); compound 1.0 µM
  residual activity: 38%
EPHB1 (human); compound 0.01 µM
  residual activity: 62%
EPHB1 (human); compound 0.1 µM
  residual activity: 49%
EPHB1 (human); compound 1.0 µM
  residual activity: 2%
YES1 (human); compound 0.01 µM
  residual activity: 34%
YES1 (human); compound 0.1 µM
  residual activity: 11%
YES1 (human); compound 1.0 µM
  residual activity: 8%
MARK3 (human); compound 0.01 µM
  residual activity: 92%
MARK3 (human); compound 0.1 µM
  residual activity: 73%
MARK3 (human); compound 1.0 µM
  residual activity: 28%
MAPK8 (human); compound 0.01 µM
  residual activity: 94%
MAPK8 (human); compound 0.1 µM
  residual activity: 107%
MAPK8 (human); compound 1.0 µM
  residual activity: 86%
HIPK1 (human); compound 0.01 µM
  residual activity: 69%
HIPK1 (human); compound 0.1 µM
  residual activity: 60%
HIPK1 (human); compound 1.0 µM
  residual activity: 56%
DYRK3 (human); compound 0.01 µM
  residual activity: 92%
DYRK3 (human); compound 0.1 µM
  residual activity: 92%
DYRK3 (human); compound 1.0 µM
  residual activity: 97%
EPHB4 (human); compound 0.01 µM
  residual activity: 110%
EPHB4 (human); compound 0.1 µM
  residual activity: 80%
EPHB4 (human); compound 1.0 µM
  residual activity: 5%
BRSK1 (human); compound 0.01 µM
  residual activity: 103%
BRSK1 (human); compound 0.1 µM
  residual activity: 99%
BRSK1 (human); compound 1.0 µM
  residual activity: 86%
DYRK2 (human); compound 0.01 µM
  residual activity: 89%
DYRK2 (human); compound 0.1 µM
  residual activity: 85%
DYRK2 (human); compound 1.0 µM
  residual activity: 93%
MAPK11 (human); compound 0.01 µM
  residual activity: 89%
MAPK11 (human); compound 0.1 µM
  residual activity: 42%
MAPK11 (human); compound 1.0 µM
  residual activity: 19%
JAK2 JH1 JH2 (human); compound 0.01 µM
  residual activity: 99%
JAK2 JH1 JH2 (human); compound 0.1 µM
  residual activity: 88%
JAK2 JH1 JH2 (human); compound 1.0 µM
  residual activity: 89%
STK3 (human); compound 0.01 µM
  residual activity: 112%
STK3 (human); compound 0.1 µM
  residual activity: 109%
STK3 (human); compound 1.0 µM
  residual activity: 118%
MAPKAPK5 (human); compound 0.01 µM
  residual activity: 119%
MAPKAPK5 (human); compound 0.1 µM
  residual activity: 115%
MAPKAPK5 (human); compound 1.0 µM
  residual activity: 125%
MAP3K11 (human); compound 0.01 µM
  residual activity: 105%
MAP3K11 (human); compound 0.1 µM
  residual activity: 100%
MAP3K11 (human); compound 1.0 µM
  residual activity: 70%
MAP3K1 (human)
  residual activity: 94%
CaMK1 (human); compound 0.01 µM
  residual activity: 97%
CaMK1 (human); compound 0.1 µM
  residual activity: 90%
CaMK1 (human); compound 1.0 µM
  residual activity: 90%
GCK (human); compound 0.01 µM
  residual activity: 103%
GCK (human); compound 0.1 µM
  residual activity: 72%
GCK (human); compound 1.0 µM
  residual activity: 21%
MAP2K1 (human); compound 0.01 µM
  residual activity: 107%
MAP2K1 (human); compound 0.1 µM
  residual activity: 106%
MAP2K1 (human); compound 1.0 µM
  residual activity: 97%
TAOK1 (human); compound 0.01 µM
  residual activity: 85%
TAOK1 (human); compound 0.1 µM
  residual activity: 69%
TAOK1 (human); compound 1.0 µM
  residual activity: 33%
TBK1 (human); compound 0.01 µM
  residual activity: 101%
TBK1 (human); compound 0.1 µM
  residual activity: 91%
TBK1 (human); compound 1.0 µM
  residual activity: 91%
INSR (human); compound 0.01 µM
  residual activity: 115%
INSR (human); compound 0.1 µM
  residual activity: 106%
INSR (human); compound 1.0 µM
  residual activity: 106%
PIM1 (human); compound 0.01 µM
  residual activity: 107%
PIM1 (human); compound 0.1 µM
  residual activity: 113%
PIM1 (human); compound 1.0 µM
  residual activity: 111%
EPHB2 (human); compound 0.01 µM
  residual activity: 109%
EPHB2 (human); compound 0.1 µM
  residual activity: 43%
EPHB2 (human); compound 1.0 µM
  residual activity: 1%
BTK (human); compound 0.01 µM
  residual activity: 91%
BTK (human); compound 0.1 µM
  residual activity: 38%
BTK (human); compound 1.0 µM
  residual activity: 21%
BRSK2 (human); compound 0.1 µM
  residual activity: 97%
BRSK2 (human); compound 1.0 µM
  residual activity: 88%
MAPK9 (human); compound 0.01 µM
  residual activity: 103%
MAPK9 (human); compound 0.1 µM
  residual activity: 90%
MAPK9 (human); compound 1.0 µM
  residual activity: 21%
MAP3K5 (human); compound 0.01 µM
  residual activity: 110%
MAP3K5 (human); compound 0.1 µM
  residual activity: 119%
EPHA2 (human); compound 0.01 µM
  residual activity: 51%
EPHA2 (human); compound 0.1 µM
  residual activity: 15%
EPHA2 (human); compound 1.0 µM
  residual activity: 6%
